Data from ChEMBL document CHEMBL3046380, “In Vitro and In Vivo Characterization of Alpha-1A Selective Agonists and Their Utility for Stress Incontience” (Med Chem Res, 2004).
Activity calls are given as the source filed them. The calls are words filed in the database; no cut-off is given here.

Assays:
[1] = molecular target: T1, Alpha-1D adrenergic receptor (Rattus norvegicus, UniProt P23944); test: Binding affinity to Rattus norvegicus (rat) alpha1D adrenoreceptor by radioligand displacement assay
T1 sequence (P23944 whole entry): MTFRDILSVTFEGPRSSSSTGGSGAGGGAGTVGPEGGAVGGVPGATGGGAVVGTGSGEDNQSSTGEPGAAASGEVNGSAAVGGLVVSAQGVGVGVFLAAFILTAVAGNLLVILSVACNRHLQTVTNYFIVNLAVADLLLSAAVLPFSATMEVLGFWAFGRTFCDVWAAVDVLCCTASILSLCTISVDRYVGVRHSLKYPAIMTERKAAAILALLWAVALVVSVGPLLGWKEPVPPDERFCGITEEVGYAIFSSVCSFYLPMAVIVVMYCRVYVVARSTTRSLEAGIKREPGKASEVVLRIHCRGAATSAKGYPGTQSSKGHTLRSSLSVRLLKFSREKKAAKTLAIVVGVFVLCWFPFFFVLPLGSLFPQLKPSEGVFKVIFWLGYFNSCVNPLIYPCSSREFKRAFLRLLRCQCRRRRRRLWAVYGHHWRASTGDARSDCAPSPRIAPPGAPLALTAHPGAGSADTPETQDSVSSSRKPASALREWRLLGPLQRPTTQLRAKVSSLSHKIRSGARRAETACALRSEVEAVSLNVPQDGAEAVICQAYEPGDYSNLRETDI

[2] = molecular target: T2, Alpha-1A adrenergic receptor (Rattus norvegicus, UniProt P43140); test: Binding affinity to alpha1A adrenoreceptor in Rattus norvegicus (rat) submaxillary gland by radioligand displacement assay
T2 sequence (P43140 whole entry): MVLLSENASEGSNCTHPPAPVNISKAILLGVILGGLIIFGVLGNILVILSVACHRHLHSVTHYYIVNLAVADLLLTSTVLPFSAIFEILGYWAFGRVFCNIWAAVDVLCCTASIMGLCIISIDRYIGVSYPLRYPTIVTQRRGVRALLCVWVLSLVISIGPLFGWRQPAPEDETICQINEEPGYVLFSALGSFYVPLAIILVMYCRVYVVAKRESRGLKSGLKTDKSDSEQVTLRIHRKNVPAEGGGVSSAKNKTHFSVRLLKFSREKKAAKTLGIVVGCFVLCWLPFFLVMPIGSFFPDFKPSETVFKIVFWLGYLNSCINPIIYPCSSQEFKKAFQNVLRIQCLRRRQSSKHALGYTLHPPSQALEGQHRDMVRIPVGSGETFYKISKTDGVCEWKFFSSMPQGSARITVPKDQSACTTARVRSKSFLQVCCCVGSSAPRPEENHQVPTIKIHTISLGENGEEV

[3] = molecular target: T3, Alpha-1B adrenergic receptor (Mesocricetus auratus, UniProt P18841); test: Binding affinity to Cricetinae (hamster) alpha1B adrenoreceptor by radioligand displacement assay
T3 sequence (P18841 whole entry): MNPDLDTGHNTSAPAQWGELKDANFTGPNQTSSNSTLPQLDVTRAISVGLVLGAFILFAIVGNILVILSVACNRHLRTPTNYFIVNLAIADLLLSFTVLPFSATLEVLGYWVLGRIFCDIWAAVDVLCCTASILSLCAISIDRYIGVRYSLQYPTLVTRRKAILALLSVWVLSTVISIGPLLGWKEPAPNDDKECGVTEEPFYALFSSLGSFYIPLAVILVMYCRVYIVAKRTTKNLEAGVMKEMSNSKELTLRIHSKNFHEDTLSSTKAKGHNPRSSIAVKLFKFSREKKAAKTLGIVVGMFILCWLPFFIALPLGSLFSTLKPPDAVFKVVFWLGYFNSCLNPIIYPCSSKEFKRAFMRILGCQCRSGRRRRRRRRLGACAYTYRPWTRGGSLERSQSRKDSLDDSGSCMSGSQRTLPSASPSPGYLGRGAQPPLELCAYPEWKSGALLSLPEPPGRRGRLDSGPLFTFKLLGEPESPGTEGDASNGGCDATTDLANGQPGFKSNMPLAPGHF

[4] = molecular target: T4, Alpha-1B adrenergic receptor (Rattus norvegicus) (UniProt P15823); test: (§1) Agonist activity at alpha1B adrenoreceptor in Rattus norvegicus (rat) spleen
T4 sequence (whole entry): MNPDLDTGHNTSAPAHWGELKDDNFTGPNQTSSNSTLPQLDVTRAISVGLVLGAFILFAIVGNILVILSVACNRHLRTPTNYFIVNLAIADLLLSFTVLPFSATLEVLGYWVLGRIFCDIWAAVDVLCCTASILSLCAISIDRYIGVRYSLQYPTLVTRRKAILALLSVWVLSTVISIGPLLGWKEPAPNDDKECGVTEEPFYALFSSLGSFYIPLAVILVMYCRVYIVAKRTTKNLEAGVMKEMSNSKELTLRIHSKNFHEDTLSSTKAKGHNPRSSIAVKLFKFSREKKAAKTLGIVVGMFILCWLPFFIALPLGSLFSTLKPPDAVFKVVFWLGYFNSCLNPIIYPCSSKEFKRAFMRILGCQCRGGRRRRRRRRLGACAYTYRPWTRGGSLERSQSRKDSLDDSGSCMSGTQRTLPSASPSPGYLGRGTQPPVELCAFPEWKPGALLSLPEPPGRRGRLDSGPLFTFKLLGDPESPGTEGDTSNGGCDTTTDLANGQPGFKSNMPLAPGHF

[5] = molecular target: T5, Alpha-1A adrenergic receptor (Oryctolagus cuniculus) (UniProt O02824); test: (§2) Agonist activity at alpha1A adrenoreceptor in Oryctolagus cuniculus (rabbit) urethra
T5 sequence (whole entry): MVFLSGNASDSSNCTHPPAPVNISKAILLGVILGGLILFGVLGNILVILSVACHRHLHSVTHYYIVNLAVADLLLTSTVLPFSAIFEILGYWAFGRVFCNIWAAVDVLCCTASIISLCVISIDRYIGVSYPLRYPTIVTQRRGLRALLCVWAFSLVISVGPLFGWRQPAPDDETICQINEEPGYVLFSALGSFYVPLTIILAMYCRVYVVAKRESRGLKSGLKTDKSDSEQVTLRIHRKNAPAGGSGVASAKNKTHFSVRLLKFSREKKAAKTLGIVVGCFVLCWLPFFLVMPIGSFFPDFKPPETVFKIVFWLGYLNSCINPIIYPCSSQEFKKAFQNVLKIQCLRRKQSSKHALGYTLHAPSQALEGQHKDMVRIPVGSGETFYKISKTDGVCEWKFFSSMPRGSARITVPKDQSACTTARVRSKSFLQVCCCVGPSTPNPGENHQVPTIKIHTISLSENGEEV

[6] = molecular target: T6, Alpha-1D adrenergic receptor (Rattus norvegicus) (UniProt P23944); test: Agonist activity at alpha1D adrenoreceptor in Rattus norvegicus (rat) aorta relative to phenylephrine
T6 sequence (whole entry): T1 sequence (P23944 whole entry)

[7] = molecular target: T5, Alpha-1A adrenergic receptor (Oryctolagus cuniculus); test: Agonist activity at alpha1A adrenoreceptor in Oryctolagus cuniculus (rabbit) urethra relative to phenylephrine
[8] = molecular target: T1, Alpha-1D adrenergic receptor; test: Antagonist activity at alpha1D adrenoreceptor in Rattus norvegicus (rat) aorta assessed as inhibition of phenylephrine-indued contraction; conditions: read-out: pA2 (converted)
[9] = molecular target: T7, Alpha-1B adrenergic receptor (Rattus norvegicus, UniProt P15823); test: Antagonist activity at alpha1B adrenoreceptor in Rattus norvegicus (rat) spleen assessed as inhibition of phenylephrine-indued contraction; conditions: read-out: pA2 (converted)
T7 sequence (P15823 whole entry): T4 sequence (whole entry)

[10] = molecular target: T8, Alpha-1A adrenergic receptor (Oryctolagus cuniculus, UniProt O02824); test: as §2
T8 sequence (O02824 whole entry): T5 sequence (whole entry)

[11] = tested on: Canis familiaris; test: Selectivity index, ratio of ED20 for change in mean arterial pressure to ED5 for effect on intraurethral pressure in iv dosed Canis lupus familiaris (dog); set-up: species or system Artery
[12] = molecular target: T1, Alpha-1D adrenergic receptor; test: Agonist activity at alpha1D adrenoreceptor in Rattus norvegicus (rat) aorta
[13] = molecular target: T7, Alpha-1B adrenergic receptor; test: as §1
[14] = molecular target: T4, Alpha-1B adrenergic receptor (Rattus norvegicus); test: Agonist activity at alpha1B adrenoreceptor in Rattus norvegicus (rat) spleen relative to phenylephrine
[15] = tested on: Canis familiaris; test: Pressor activity in Canis lupus familiaris (dog) assessed as increase in mean arterial blood pressure at 100 nmol/kg, iv in presence of idazoxan; assay type: ADME, organism-based; conditions: in vivo
[16] = tested on: Canis familiaris; test: Pressor activity in Canis lupus familiaris (dog) assessed as increase in mean arterial blood pressure at 100 nmol/kg, iv in presence of prazosin; assay type: ADME, organism-based; conditions: in vivo
[17] = tested on: Canis familiaris; test: Pressor activity in Canis lupus familiaris (dog) assessed as increase in mean arterial blood pressure at 100 nmol/kg, iv; assay type: ADME, organism-based; conditions: in vivo

Row | Structure (SMILES) | Ki [1] | Ki [2] | Ki [3] | pEC50 [4] | other results
1 | CCS(=O)(=O)Nc1c(O)ccc2c1CCCC2C1=NCCN1 (stereo unspecified) | 2.19 µM | 0.0603 µM | 4.27 µM |  | 
2 | CN(c1c(O)ccc2c1CCCC2C1=NCCN1)S(C)(=O)=O (stereo unspecified) | 18.2 µM | 5.5 µM | 15.8 µM |  | 
3 | O=S(=O)(Nc1c(O)ccc2c1CCCC2C1=NCCN1)c1ccccc1 (stereo unspecified) | > 3.16 µM | > 3.16 µM | > 3.16 µM |  | 
4 | CCCS(=O)(=O)Nc1cccc2c1CCCC2c1c[nH]cn1 (stereo unspecified) | > 10 µM |  | > 10 µM | inactive | pEC50 [5]: inactive
5 | NC(=O)Nc1c(O)ccc2c1CCCC2C1=NCCN1 (stereo unspecified) | 5.5 µM | 7.08 µM | 10 µM |  | 
6 | COC(=O)Nc1cccc2c1CCCC2c1c[nH]cn1 (stereo unspecified) |  |  |  | inactive | pEC50 [5]: inactive
7 | Cn1cnc(C2CCCc3c(NS(C)(=O)=O)cccc32)c1 (stereo unspecified) | 3.63 µM |  | 1.05 µM |  | 
8 | CS(=O)(=O)Nc1cccc2c1CCCCC2c1c[nH]cn1 (stereo unspecified) |  |  |  | inactive | 
9 | CS(=O)(=O)Nc1c(O)ccc2c1CCCC2C1=NCCN1 (stereo unspecified) |  |  |  |  | Efficacy [6]: 99%; Efficacy [7]: 88%
10 | Cn1cncc1C1CCCc2c(NS(C)(=O)=O)cccc21 (stereo unspecified) | > 10 µM | > 10 µM | > 10 µM | inactive | pEC50 [5]: inactive
11 | CCS(=O)(=O)Nc1cccc2c1CCCC2c1c[nH]c(C)n1 (stereo unspecified) | > 10 µM |  | > 10 µM | inactive | pEC50 [5]: inactive
12 | CCS(=O)(=O)Nc1cccc(Cc2c[nH]cn2)c1C |  |  |  |  | Kb [8]: 5.89 µM; Kb [9]: 15.1 µM
13 | COc1ccc(OC)c(C(O)CN)c1 (stereo unspecified) [DESGLYMIDODRINE] |  |  |  |  | EC50 [10]: 7.08 µM; Selectivity Index [11]: 1.3; EC50 [12]: 1.86 µM
14 | CCCS(=O)(=O)Nc1c(O)ccc2c1CCCC2C1=NCCN1 (stereo unspecified) | 1.86 µM | 0.776 µM | 3.09 µM |  | 
15 | COc1ccc2c(c1NS(C)(=O)=O)CCCC2C1=NCCN1 (stereo unspecified) | 1.55 µM | 0.617 µM | 3.47 µM |  | 
16 | CCS(=O)(=O)Nc1cccc2c1CCCC2c1c[nH]cn1 (stereo unspecified) |  |  |  | inactive | 
17 | CC(N)C(O)c1ccccc1 (stereo unspecified) [PHENYLPROPANOLAMINE] |  |  |  |  | EC50 [13]: 282 µM; EC50 [10]: 234 µM; Selectivity Index [11]: 0.4; EC50 [12]: 75.9 µM
18 | Nc1cccc2c1CCCC2c1c[nH]cn1 (stereo unspecified) |  | 0.126 µM |  |  | EC50 [13]: 0.977 µM; EC50 [10]: 0.275 µM
19 | CC(C)S(=O)(=O)Nc1cccc2c1CCCC2c1c[nH]cn1 (stereo unspecified) |  |  | > 10 µM |  | EC50 [13]: 14.1 µM; EC50 [10]: 6.76 µM; Efficacy [14]: 8%
20 | O=S(=O)(Nc1c(O)ccc2c1CCCC2C1=NCCN1)C(F)(F)F (stereo unspecified) | > 3.16 µM | > 3.16 µM | > 3.16 µM |  | 
21 | COC(=O)Nc1c(O)ccc2c1CCCC2C1=NCCN1 (stereo unspecified) | 8.51 µM | 0.288 µM | 10 µM |  | 
22 | CCS(=O)(=O)Nc1cccc(Cc2c[nH]cn2)c1 |  |  |  |  | Activity [15]: Toxic; Activity [16]: Non-toxic; Kb [8]: 0.661 µM; Activity [17]: Toxic; Kb [9]: 4.07 µM; Efficacy [14]: 11%
23 | O=S(=O)(Nc1cccc2c1CCCC2c1c[nH]cn1)C1CC1 (stereo unspecified) |  |  | > 10 µM | inactive | EC50 [10]: 5.62 µM
24 | O=S(=O)(CC(F)(F)F)Nc1cccc2c1CCCC2c1c[nH]cn1 (stereo unspecified) | > 10 µM |  | > 10 µM | inactive | Kb [8]: 27.5 µM; Kb [9]: 42.7 µM; Efficacy [7]: 64%
25 | CCS(=O)(=O)Nc1cccc2c1CCC[C@H]2c1c[nH]cn1 | 1.07 µM | 0.0468 µM | 1.32 µM |  | Kb [8]: 7.24 µM; EC50 [13]: 3.8 µM; EC50 [10]: 0.17 µM; Kb [9]: 13.8 µM; Selectivity Index [11]: 3.3; Efficacy [14]: 11%; Efficacy [7]: 71%
